Measurements as given in US6762174B1 (priority 1998, dated 2004).
Like-named read-outs stand apart in the source and are kept apart here.

Key:
[1] = DEX.10 mg IP
MOPC-315 myeloma [2] = test: MOPC-315 Myeloma study #5: Melphalan + β-alethine ip day 9 (1 × 10^6 tumor cells); conditions: for Tumor Size: 1.25 mg/kg mp; for Animals Surviving: mp 1.25 mg/kg
MOPC-315 myeloma [3] = test: MOPC-315 Myeloma study #6: β-alethine ip day 9, 10 or 11, mp ip day 10 (1 × 10^6 tumor cells); conditions: for Animals Surviving: mp 1.25 mg/kg d 10 alone (20 mice)
MOPC-315 myeloma [4] = test: MOPC-315 Myeloma study #4: Melphalan + β-alethine ip day 10 (1 × 10^6 tumor cells); conditions: for Animals Surviving: mp 1.25 mg/kg; for Mean Tumor Size: mp alone
[5] = system: MT-1 breast cancer xenograft; conditions: for Died of toxic effects: 8 mice
B16 melanoma = assay type: in vivo, female BDF1 mice; conditions: for Statistically Significant Effect on Reducing Tumor Volume: cp alone
[6] = mp on day 10, BT none, 20 in group

Structure (SMILES): C[C@@H]1C[C@H]2[C@@H]3CCC4=CC(=O)C=C[C@]4(C)[C@@]3(F)[C@@H](O)C[C@]2(C)[C@@]1(O)C(=O)CO [DEX., dexamethasone]
- Percent Body Weight Loss From Day 0 ([1]; day 1): 3.0%
- Percent Body Weight Loss From Day 0 ([1]; day 5): 4.6%
- Percent Body Weight Loss From Day 0 ([1]; day 6): 2.8%
- Percent Body Weight Loss From Day 0 ([1]; day 7): 3.4%
- Percent Body Weight Loss From Day 0 ([1]; day 8): 2.4%
- Percent Body Weight Loss From Day 0 ([1]; day 9): 3.6%
- Percent Body Weight Loss From Day 0 ([1]; day 10): 2.8%
- Percent Body Weight Loss From Day 0 ([1]; day 11): 1.3%
- Percent Body Weight Loss From Day 0 ([1]; day 12): 3.7%
- Percent Body Weight Loss From Day 0 ([1]; day 13): 2.1%
- Percent Body Weight Loss From Day 0 ([1]; day 21): 0.1%

Structure (SMILES): N[C@@H](Cc1ccc(N(CCCl)CCCl)cc1)C(=O)O [mp, melphalan]
- Tumor Size (MOPC-315 myeloma [2]; day 13): 20.4 mm
- Tumor Size (MOPC-315 myeloma [2]; day 16): 19.2 mm
- Tumor Size (MOPC-315 myeloma [2]; day 20): 17.0 mm
- Tumor Size (MOPC-315 myeloma [2]; day 23): 10.2 mm
- Tumor Size (MOPC-315 myeloma [2]; day 27): 0 mm
- Animals Surviving (MOPC-315 myeloma [2]; day 10): 10
- Animals Surviving (MOPC-315 myeloma [2]; day 11): 10
- Animals Surviving (MOPC-315 myeloma [2]; day 12): 10
- Animals Surviving (MOPC-315 myeloma [2]; day 13): 10
- Animals Surviving (MOPC-315 myeloma [2]; day 14): 10
- Animals Surviving (MOPC-315 myeloma [2]; day 15): 10
- Animals Surviving (MOPC-315 myeloma [2]; day 16): 10
- Animals Surviving (MOPC-315 myeloma [2]; day 17): 10
- Animals Surviving (MOPC-315 myeloma [2]; day 18): 10
- Animals Surviving (MOPC-315 myeloma [2]; day 19): 10
- Animals Surviving (MOPC-315 myeloma [2]; day 20): 9
- Animals Surviving (MOPC-315 myeloma [2]; day 21): 9
- Animals Surviving (MOPC-315 myeloma [2]; day 22): 9
- Animals Surviving (MOPC-315 myeloma [2]; day 23): 8
- Animals Surviving (MOPC-315 myeloma [2]; day 25): 8
- Animals Surviving (MOPC-315 myeloma [2]; day 26): 8
- Animals Surviving (MOPC-315 myeloma [2]; day 28): 7
- Animals Surviving (MOPC-315 myeloma [2]; day 29): 7
- Animals Surviving (MOPC-315 myeloma [2]; day 31): 7
- Animals Surviving (MOPC-315 myeloma [3]; test day 10): 20
- Animals Surviving (MOPC-315 myeloma [3]; test day 11): 20
- Animals Surviving (MOPC-315 myeloma [3]; test day 12): 20
- Animals Surviving (MOPC-315 myeloma [3]; test day 13): 20
- Animals Surviving (MOPC-315 myeloma [3]; test day 14): 20
- Animals Surviving (MOPC-315 myeloma [3]; test day 15): 20
- Animals Surviving (MOPC-315 myeloma [3]; test day 16): 19
- Animals Surviving (MOPC-315 myeloma [3]; test day 17): 19
- Animals Surviving (MOPC-315 myeloma [3]; test day 18): 19
- Animals Surviving (MOPC-315 myeloma [3]; test day 19): 19
- Animals Surviving (MOPC-315 myeloma [3]; test day 20): 19
- Animals Surviving (MOPC-315 myeloma [3]; test day 21): 15
- Animals Surviving (MOPC-315 myeloma [3]; test day 22): 9
- Animals Surviving (MOPC-315 myeloma [3]; test day 23): 9
- Animals Surviving (MOPC-315 myeloma [3]; test day 25): 7
- Animals Surviving (MOPC-315 myeloma [3]; test day 26): 4
- Animals Surviving (MOPC-315 myeloma [3]; test day 27): 3
- Animals Surviving (MOPC-315 myeloma [3]; test day 29): 2
- Animals Surviving (MOPC-315 myeloma [3]; test day 31): 2
- day 21 tumor size (MOPC-315 myeloma [3]; mp on day 10, BT none): 25.8 mm
- day half are dead (MOPC-315 myeloma [3]; mp on day 10, BT none): 22
- cures day 21 (MOPC-315 myeloma [3]; [6]): 2
- deaths day 21 (MOPC-315 myeloma [3]; [6]): 5
- cures day 21 (MOPC-315 myeloma [3]; mp on day 10, BT none, 20 in group, listed as melphalan): 2/20
- day 21 tumor size (MOPC-315 myeloma [3]; mp on day 10, BT none, listed as melphalan): 26 mm
- animals in ten cured (MOPC-315 myeloma [4]; mp 1.25 mg/kg alone): one
- cure occurred, days after treatment began (MOPC-315 myeloma [4]; mp 1.25 mg/kg alone): 19 days
- Animals Surviving (MOPC-315 myeloma [4]; day 10): 10
- Animals Surviving (MOPC-315 myeloma [4]; day 11): 8
- Animals Surviving (MOPC-315 myeloma [4]; day 12): 5
- Animals Surviving (MOPC-315 myeloma [4]; day 13): 4
- Animals Surviving (MOPC-315 myeloma [4]; day 14): 3
- Animals Surviving (MOPC-315 myeloma [4]; day 15): 3
- Animals Surviving (MOPC-315 myeloma [4]; day 16): 3
- Animals Surviving (MOPC-315 myeloma [4]; day 17): 3
- Animals Surviving (MOPC-315 myeloma [4]; day 18): 3
- Animals Surviving (MOPC-315 myeloma [4]; day 19): 3
- Animals Surviving (MOPC-315 myeloma [4]; day 20): 3
- Animals Surviving (MOPC-315 myeloma [4]; day 21): 3
- Animals Surviving (MOPC-315 myeloma [4]; day 22): 3
- Animals Surviving (MOPC-315 myeloma [4]; day 23): 3
- Animals Surviving (MOPC-315 myeloma [4]; day 25): 3
- Animals Surviving (MOPC-315 myeloma [4]; day 26): 3
- Animals Surviving (MOPC-315 myeloma [4]; day 27): 3
- Animals Surviving (MOPC-315 myeloma [4]; day 29): 3
- Animals Surviving (MOPC-315 myeloma [4]; day 31): 1
- Mean Tumor Size (MOPC-315 myeloma [4]; day 10): 22.5 mm
- Mean Tumor Size (MOPC-315 myeloma [4]; day 14): 19 mm
- Mean Tumor Size (MOPC-315 myeloma [4]; day 17): 17 mm
- Mean Tumor Size (MOPC-315 myeloma [4]; day 21): 22 mm
- Mean Tumor Size (MOPC-315 myeloma [4]; day 29): 28 mm

Structure (SMILES): O=P1(N(CCCl)CCCl)NCCCO1 (stereo not shown) [cp, cyclophosphamide]
- Median Relative Tumor Volume ([5]; 100 mg/kg cp, day 42): 1
- Median Relative Tumor Volume ([5]; 100 mg/kg cp, day 46): 1.37
- Median Relative Tumor Volume ([5]; 100 mg/kg cp, day 49): 1.54
- Median Relative Tumor Volume ([5]; 100 mg/kg cp, day 53): 1.50
- Median Relative Tumor Volume ([5]; 100 mg/kg cp, day 59): 1.85
- Median Relative Tumor Volume ([5]; 200 mg/kg cp, day 42): 1
- Median Relative Tumor Volume ([5]; 200 mg/kg cp, day 46): 1.15
- Median Relative Tumor Volume ([5]; 200 mg/kg cp, day 49): 1.11
- Median Relative Tumor Volume ([5]; 200 mg/kg cp, day 53): 1.21
- Median Relative Tumor Volume ([5]; 200 mg/kg cp, day 59): 1.15
- Median Relative Tumor Volume ([5]; 300 mg/kg cp, day 42): 1
- Median Relative Tumor Volume ([5]; 300 mg/kg cp, day 46): 1.34
- Median Relative Tumor Volume ([5]; 300 mg/kg cp, day 49): 1.14
- Median Relative Tumor Volume ([5]; 300 mg/kg cp, day 53): 1.15
- Median Relative Tumor Volume ([5]; 300 mg/kg cp, day 59): 1.14
- T/C RTV d 49 ([5]; Cp 100 mg/kg): 87%
- T/C RTV d 59 ([5]; Cp 100 mg/kg): 81%
- WBC d 46 ([5]; Cp 100 mg/kg): 10.3 10^6/mL
- T/C RTV d 49 ([5]; Cp 200 mg/kg): 63%
- T/C RTV d 59 ([5]; Cp 200 mg/kg): 50%
- WBC d 46 ([5]; Cp 200 mg/kg): 5.5 10^6/mL
- Last 2 readings indicate progression ([5]; Cp 300 mg/kg): 12%
- Last 2 readings indicate regression ([5]; Cp 300 mg/kg): 12%
- Last 2 readings stayed the same ([5]; Cp 300 mg/kg): 0%
- Last reading indicates progression ([5]; Cp 300 mg/kg): 25%
- Last reading indicates regression ([5]; Cp 300 mg/kg): 25%
- T/C RTV d 49 ([5]; Cp 300 mg/kg): 65%
- T/C RTV d 59 ([5]; Cp 300 mg/kg): 50%
- WBC d 46 ([5]; Cp 300 mg/kg): 5.6 10^6/mL
- Died of toxic effects ([5]; Cp 300 mg/kg): 25%
- Died of toxic effects ([5]; Cp 300 mg/kg, listed as Cp): 25%
- Percent of Animals with Greater than 10 Metastases (B16 melanoma; Cp 200 mg/kg): 50%
- animals with 0-10 Metastases on Day 42 (B16 melanoma; Cp 200 mg/kg): 4
- animals with 11-20 Metastases on Day 42 (B16 melanoma; Cp 200 mg/kg): 3
- animals with 21-30 Metastases on Day 42 (B16 melanoma; Cp 200 mg/kg): 0
- animals with over 30 Metastases (full of metastases) on Day 42 (B16 melanoma; Cp 200 mg/kg): 1
- Primary Tumor Size (Median RTV) (B16 melanoma; cp 200 mg/kg alone, day 0): 1
- Primary Tumor Size (Median RTV) (B16 melanoma; cp 200 mg/kg alone, day 4): 1.0
- Primary Tumor Size (Median RTV) (B16 melanoma; cp 200 mg/kg alone, day 7): 2.4
- Primary Tumor Size (Median RTV) (B16 melanoma; cp 200 mg/kg alone, day 10): 3.5
- Primary Tumor Size (Median RTV) (B16 melanoma; cp 200 mg/kg alone, day 14): 12.9
- Primary Tumor Size (Median RTV) (B16 melanoma; cp 200 mg/kg alone, day 17): 32.6
- T/C ratio for medium tumor volume (B16 melanoma; cp 200 mg/kg alone, day 17): 82.3%
- Statistically Significant Effect on Reducing Tumor Volume (B16 melanoma; DAY 7): No
- Statistically Significant Effect on Reducing Tumor Volume (B16 melanoma; DAY 10): Yes
- Statistically Significant Effect on Reducing Tumor Volume (B16 melanoma; DAY 14): Yes
- Statistically Significant Effect on Reducing Tumor Volume (B16 melanoma; DAY 17): No
